Reference: BindingDB's records for doi:10.1016/s0960-894x(99)00666-6 (Merck Research Laboratories, 2000)

Target: Integrase (Human immunodeficiency virus 1, UniProt Q7ZJM1)
Experiment: ChEBML_90573
Text: Inhibitory activity against HIV-1 integrase

Chain of Integrase (Q7ZJM1 whole entry): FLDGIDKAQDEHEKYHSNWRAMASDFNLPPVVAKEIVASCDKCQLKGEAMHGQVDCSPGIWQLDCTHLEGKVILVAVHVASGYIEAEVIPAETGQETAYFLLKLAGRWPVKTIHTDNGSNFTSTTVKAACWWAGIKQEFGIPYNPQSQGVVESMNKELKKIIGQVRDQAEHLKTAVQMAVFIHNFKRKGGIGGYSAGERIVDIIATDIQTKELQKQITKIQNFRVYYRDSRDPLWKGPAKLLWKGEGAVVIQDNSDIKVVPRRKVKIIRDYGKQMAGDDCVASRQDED

IC50: 3 µM
SMILES: CCCCC(C)/C=C(\C)C(=O)O[C@@H]1CC[C@H](C(=O)O)[C@@]2(C)CC(=C(C)C=O)C(=O)C=C12 (stereo partly drawn) [(1S,4R,7S,8aR)-4-((E)-2,4-Dimethyl-oct-2-enoyloxy)-7-(1-formyl-vinyl)-8a-methyl-6-oxo-1,2,3,4,6,7,8,8a-octahydro-naphthalene-1-carboxylic acid]
